From patent US20100173943A1, “INSECTICIDAL COMPOSITIONS WITH IMPROVED ACTION” (BAYER CROPSCIENCE AG, priority 2007, published 2010)

Key:
[1] = system: green peach aphid (Myzus persicae); assay: Myzus persicae test (MYZUPE); format: in vivo; conditions: pepper plants sprayed, 6 days
Summary of the method: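 Compound formulated in DMF with alkylaryl polyglycol ether emulsifier, diluted in emulsifier-containing water; ammonium salts and/or penetrants added at 1000 ppm each where required. Heavily infested pepper plants (Capsicum annuum) sprayed at desired concentration. Kill rate (%) scored after desired time; 100% = all aphids dead.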

[2] = system: cotton aphid (Aphis gossypii); assay: Aphis gossypii test (APHIGO spray treatment); format: in vivo; conditions: cotton leaves sprayed, 6 days
Summary of the method: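 Cotton leaves heavily infested with aphids sprayed with active ingredient formulated in DMF/alkylaryl polyglycol ether emulsifier and diluted in water to the test concentration, with ammonium salts and/or penetrants at 1000 ppm each where required. Kill rate (%) scored after the chosen period.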

[3] = 100 ppm a.i. + AMS and RME 1000 ppm each
[4] = 100 ppm a.i. + ammonium sulphate 1000 ppm
[5] = 100 ppm a.i. + rapeseed oil methyl ester 1000 ppm

CCN(Cc1ccc(Cl)nc1)C1=CC(=O)CCC1 [Compound I-39, 3-{[(6-chloropyrid-3-yl)methyl](ethyl)amino}cyclohex-2-en-1-one]
Kill in % after 6 days +AMS + RME ([1]; 20 ppm a.i. + AMS and RME 1000 ppm each): 30% | Kill in % after 6 days +AMS ([1]; 20 ppm a.i. + ammonium sulphate 1000 ppm): 25% | Kill in % after 6 days +RME ([1]; 20 ppm a.i. + rapeseed oil methyl ester 1000 ppm): 80% | Kill in % after 6 days +AMS + RME [1, 3]: 95% | Kill in % after 6 days +AMS [1, 4]: 90% | Kill in % after 6 days +RME [1, 5]: 95% | pest or weed control at 20 ppm ([1]; Myzus persicae, 144 h, 20 ppm a.i. alone, read-out: Kill in % after 6 days a.i.): 20% | pest or weed control at 100 ppm ([1]; Myzus persicae, 144 h, 100 ppm a.i. alone, read-out: Kill in % after 6 days a.i.): 85% | Kill in % after 6 days +AMS + RME [2, 3]: 60% | Kill in % after 6 days +AMS [2, 4]: 45% | Kill in % after 6 days +RME [2, 5]: 60% | pest or weed control at 100 ppm ([2]; Aphis gossypii, 144 h, 100 ppm a.i. alone, read-out: Kill in % after 6 days a.i.): 45%
